# Results from ChEMBL document CHEMBL4828715, “Discovery, Structure-Activity Relationships, and In Vivo Evaluation of Novel Aryl Amides as Brain Penetrant Adaptor Protein 2-Associated Kinase 1 (AAK1) Inhibitors for the Treatment of Neuropathic Pain” (J Med Chem, 2021).
# Activity calls are given as the source filed them. The rule behind the calls is not given here.
# Columns and labels:
# Rattus norvegicus [1] = test: Antinociceptive activity in Sprague-Dawley rat model of chronic constriction injury-induced neuropathic pain assessed as reduction in thermal hyperalgesia 30 mg/kg, sc by Von Frey test relative to control; format: functional; parameters: scale not given: the % may be the effect or the level left
# [2] = Unbound drug concentration in plasma of Sprague-Dawley rat model of chronic constriction injury-induced neuropathic pain at 3 mg/kg, sc; format: ADME, organism-based; conditions: in vivo
# [3] = Drug concentration in Sprague-Dawley rat plasma at 30 mg/kg, sc measured after 190 mins; format: ADME, organism-based
# [4] = molecular target: AP2-associated protein kinase 1 (Mus musculus) (UniProt Q3UHJ0); test: In vivo inhibition of AAK1 in sc dosed C57BL6 mouse assessed as suppression of mu2 phosphorylation in brain lysate by Western blot analysis; format: functional, organism-based
# Chain of AP2-associated protein kinase 1 (Mus musculus) (Q3UHJ0 whole entry, looked up, the tested form may be a part): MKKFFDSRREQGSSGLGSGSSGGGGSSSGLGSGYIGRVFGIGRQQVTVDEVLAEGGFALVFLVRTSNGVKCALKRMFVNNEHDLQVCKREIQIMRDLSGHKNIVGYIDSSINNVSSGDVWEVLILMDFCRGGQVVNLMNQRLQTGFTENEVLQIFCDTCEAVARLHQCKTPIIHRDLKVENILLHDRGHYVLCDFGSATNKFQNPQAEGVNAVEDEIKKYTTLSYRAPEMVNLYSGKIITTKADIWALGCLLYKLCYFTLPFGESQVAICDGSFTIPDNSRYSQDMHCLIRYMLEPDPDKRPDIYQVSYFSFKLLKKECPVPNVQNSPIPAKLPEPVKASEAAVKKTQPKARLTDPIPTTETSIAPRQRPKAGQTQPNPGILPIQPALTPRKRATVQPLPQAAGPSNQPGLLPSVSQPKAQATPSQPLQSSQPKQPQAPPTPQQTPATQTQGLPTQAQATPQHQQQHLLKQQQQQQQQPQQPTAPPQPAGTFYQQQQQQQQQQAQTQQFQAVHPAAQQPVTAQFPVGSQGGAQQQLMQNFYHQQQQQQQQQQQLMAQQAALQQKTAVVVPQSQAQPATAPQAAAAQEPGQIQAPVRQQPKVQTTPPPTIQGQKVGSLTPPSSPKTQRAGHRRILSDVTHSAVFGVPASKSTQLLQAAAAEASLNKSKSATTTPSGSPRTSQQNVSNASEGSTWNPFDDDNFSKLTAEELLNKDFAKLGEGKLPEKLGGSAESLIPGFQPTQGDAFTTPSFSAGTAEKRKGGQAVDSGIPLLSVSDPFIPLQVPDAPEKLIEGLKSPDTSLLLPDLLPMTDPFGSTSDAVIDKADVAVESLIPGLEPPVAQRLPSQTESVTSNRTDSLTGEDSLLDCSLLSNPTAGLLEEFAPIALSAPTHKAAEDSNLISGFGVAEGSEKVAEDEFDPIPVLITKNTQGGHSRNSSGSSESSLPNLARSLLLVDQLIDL
# [5] = Unbound drug concentration in plasma of Sprague-Dawley rat model of chronic constriction injury-induced neuropathic pain at 10 mg/kg, sc; format: ADME, organism-based; conditions: in vivo
# [6] = Permeability of the compound at pH 5.5 incubated for 4 hrs by PAMPA-based UV spectrophotometry; format: ADME; conditions: read-out: permeability
# [7] = Drug concentration in plasma of C57BL6 mouse at 3 mg/kg, sc; format: ADME, organism-based; conditions: in vivo
# [8] = Drug concentration in plasma of C57BL6 mouse at 60 mg/kg, sc; format: ADME, organism-based; conditions: in vivo
# [9] = Permeability of the compound at pH 7.4 incubated for 4 hrs by PAMPA-based UV spectrophotometry; format: ADME; conditions: PAMPA, pH 7.4, read-out: permeability
# [10] = molecular target: cAMP-dependent protein kinase catalytic subunit PRKX (Homo sapiens, UniProt P51817); test: Inhibition of wild-type human partial length PRKX (M1 to F358 residues) expressed in bacterial expression system by Kinomescan method
# Chain of cAMP-dependent protein kinase catalytic subunit PRKX (P51817 whole entry, the tested form may be a part): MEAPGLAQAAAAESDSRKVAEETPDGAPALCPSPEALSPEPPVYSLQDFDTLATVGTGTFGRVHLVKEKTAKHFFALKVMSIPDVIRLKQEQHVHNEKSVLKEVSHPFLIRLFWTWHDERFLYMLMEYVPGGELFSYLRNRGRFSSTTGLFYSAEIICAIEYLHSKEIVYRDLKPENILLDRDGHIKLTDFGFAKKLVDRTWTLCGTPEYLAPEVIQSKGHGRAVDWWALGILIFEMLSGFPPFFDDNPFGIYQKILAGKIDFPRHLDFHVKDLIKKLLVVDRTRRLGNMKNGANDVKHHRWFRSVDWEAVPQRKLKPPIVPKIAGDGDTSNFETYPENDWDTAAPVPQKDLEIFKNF
# [11] = molecular target: Cyclin-G-associated kinase (Homo sapiens) (UniProt O14976); test: Inhibition of wild-type human partial length GAK (G13 to Y338 residues) expressed in bacterial expression system assessed as residual binding level at 1 uM by Kinomescan method relative to control
# Chain of Cyclin-G-associated kinase (Homo sapiens) (O14976 whole entry, the tested form may be a part): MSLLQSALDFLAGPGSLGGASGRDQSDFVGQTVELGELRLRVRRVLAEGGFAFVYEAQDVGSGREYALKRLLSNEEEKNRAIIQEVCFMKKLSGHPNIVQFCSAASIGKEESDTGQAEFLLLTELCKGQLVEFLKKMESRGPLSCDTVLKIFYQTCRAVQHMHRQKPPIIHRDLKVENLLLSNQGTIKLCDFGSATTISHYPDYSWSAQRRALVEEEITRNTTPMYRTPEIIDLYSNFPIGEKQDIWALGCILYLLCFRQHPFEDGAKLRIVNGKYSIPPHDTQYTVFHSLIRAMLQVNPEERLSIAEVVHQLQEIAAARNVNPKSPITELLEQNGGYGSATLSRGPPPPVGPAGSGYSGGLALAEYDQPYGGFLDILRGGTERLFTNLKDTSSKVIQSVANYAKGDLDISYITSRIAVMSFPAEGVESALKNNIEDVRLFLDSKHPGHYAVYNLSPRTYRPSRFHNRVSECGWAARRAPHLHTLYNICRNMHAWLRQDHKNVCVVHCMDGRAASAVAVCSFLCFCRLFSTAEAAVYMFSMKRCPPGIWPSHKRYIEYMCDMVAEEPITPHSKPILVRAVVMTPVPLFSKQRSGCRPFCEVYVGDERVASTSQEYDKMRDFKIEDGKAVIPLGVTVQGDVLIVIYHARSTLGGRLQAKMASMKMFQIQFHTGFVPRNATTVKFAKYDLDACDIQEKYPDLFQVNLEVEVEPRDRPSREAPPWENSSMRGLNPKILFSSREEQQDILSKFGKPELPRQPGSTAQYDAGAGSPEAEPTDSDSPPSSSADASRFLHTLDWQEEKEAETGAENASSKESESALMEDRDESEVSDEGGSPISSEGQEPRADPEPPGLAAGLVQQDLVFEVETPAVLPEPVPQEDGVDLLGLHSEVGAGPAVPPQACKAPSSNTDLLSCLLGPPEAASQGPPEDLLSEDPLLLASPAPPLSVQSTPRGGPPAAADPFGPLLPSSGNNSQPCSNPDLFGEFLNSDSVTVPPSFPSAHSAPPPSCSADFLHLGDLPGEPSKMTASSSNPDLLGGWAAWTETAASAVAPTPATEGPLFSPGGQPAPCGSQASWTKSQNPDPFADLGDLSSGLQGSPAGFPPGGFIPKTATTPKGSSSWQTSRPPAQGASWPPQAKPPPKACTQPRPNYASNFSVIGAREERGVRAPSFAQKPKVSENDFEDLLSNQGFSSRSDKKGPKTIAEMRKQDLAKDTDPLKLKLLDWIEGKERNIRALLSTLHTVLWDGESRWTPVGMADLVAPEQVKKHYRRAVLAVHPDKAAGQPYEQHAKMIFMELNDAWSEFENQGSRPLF
# [12] = molecular target: AP2-associated protein kinase 1 (Mus musculus) (UniProt Q3UHJ0); test: In vivo inhibition of AAK1 in C57BL6 mouse assessed as suppression of mu2 phosphorylation in brain lysate at 30 mg/kg, sc measured; format: functional, organism-based
# [13] = molecular target: Alpha-2C adrenergic receptor (Homo sapiens, UniProt P18825); test: Inhibition of alpha 2C adrenergic receptor (unknown origin)
# Chain of Alpha-2C adrenergic receptor (P18825 whole entry): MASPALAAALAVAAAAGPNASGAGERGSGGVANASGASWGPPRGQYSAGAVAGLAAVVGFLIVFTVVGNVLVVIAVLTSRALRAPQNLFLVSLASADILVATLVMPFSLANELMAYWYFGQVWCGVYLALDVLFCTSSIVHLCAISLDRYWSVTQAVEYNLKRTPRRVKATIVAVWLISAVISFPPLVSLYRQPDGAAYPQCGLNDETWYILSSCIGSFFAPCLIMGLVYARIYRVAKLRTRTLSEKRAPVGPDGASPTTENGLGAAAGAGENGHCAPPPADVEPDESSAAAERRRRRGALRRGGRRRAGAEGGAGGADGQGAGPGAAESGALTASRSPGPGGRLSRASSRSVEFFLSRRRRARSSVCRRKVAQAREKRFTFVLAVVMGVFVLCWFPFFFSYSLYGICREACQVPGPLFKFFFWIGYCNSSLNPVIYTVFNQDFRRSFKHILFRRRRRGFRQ
# [14] = Drug concentration in brain of Sprague-Dawley rat model of chronic constriction injury-induced neuropathic pain at 3 mg/kg, sc; format: ADME, organism-based; conditions: in vivo, read-out: Ct
# [15] = molecular target: Serine/threonine-protein kinase haspin (Homo sapiens, UniProt Q8TF76); test: Inhibition of wild-type human partial length HASPIN (I452 to K798 residues) expressed in mammalian expression system by Kinomescan method relative to control
# Chain of Serine/threonine-protein kinase haspin (Q8TF76 whole entry, the tested form may be a part): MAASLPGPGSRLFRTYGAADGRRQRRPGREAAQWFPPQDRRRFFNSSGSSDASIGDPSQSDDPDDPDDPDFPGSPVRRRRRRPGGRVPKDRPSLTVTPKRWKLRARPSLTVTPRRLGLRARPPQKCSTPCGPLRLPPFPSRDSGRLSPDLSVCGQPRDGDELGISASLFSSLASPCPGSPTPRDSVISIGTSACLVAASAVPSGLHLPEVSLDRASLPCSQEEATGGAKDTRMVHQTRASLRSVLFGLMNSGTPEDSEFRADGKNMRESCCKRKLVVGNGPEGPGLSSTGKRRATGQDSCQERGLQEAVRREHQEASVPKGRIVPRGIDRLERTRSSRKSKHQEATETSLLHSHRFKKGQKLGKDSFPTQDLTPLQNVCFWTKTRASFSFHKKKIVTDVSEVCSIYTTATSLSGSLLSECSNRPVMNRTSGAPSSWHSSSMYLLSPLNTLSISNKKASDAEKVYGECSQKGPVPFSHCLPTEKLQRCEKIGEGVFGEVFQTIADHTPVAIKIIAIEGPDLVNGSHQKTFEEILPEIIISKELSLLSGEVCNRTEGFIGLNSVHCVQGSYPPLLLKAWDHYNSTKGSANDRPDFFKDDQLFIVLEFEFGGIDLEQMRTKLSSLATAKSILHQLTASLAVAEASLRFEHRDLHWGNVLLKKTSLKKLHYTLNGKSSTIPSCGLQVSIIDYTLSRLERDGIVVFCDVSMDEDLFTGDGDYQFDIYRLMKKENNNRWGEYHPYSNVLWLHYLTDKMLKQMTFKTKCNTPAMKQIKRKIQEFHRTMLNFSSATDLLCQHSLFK
# Rattus norvegicus [16] = test: Reversal of chronic constriction injury-induced cold allodynia in Sprague-Dawley rat model of neuropathic pain at 60 mg/kg, sc measured up to 180 mins relative to control; format: functional; conditions: time min <=180
# [17] = Protein binding in mouse plasma assessed as unbound fraction at 10 uM measured after 5 hrs by equilibrium dialysis method
# [18] = Unbound drug concentration in plasma of Sprague-Dawley rat model of chronic constriction injury-induced neuropathic pain at 30 mg/kg, sc; format: ADME, organism-based; conditions: in vivo
# [19] = molecular target: MAP kinase-interacting serine/threonine-protein kinase 1 (Homo sapiens, UniProt Q9BUB5); test: Inhibition of wild-type human full length MKNK1 (M1 to L424 residues) expressed in mammalian expression system assessed as residual binding level at 1 uM by Kinomescan method relative to control
# Chain of MAP kinase-interacting serine/threonine-protein kinase 1 (Q9BUB5 whole entry, looked up, the tested form may be a part): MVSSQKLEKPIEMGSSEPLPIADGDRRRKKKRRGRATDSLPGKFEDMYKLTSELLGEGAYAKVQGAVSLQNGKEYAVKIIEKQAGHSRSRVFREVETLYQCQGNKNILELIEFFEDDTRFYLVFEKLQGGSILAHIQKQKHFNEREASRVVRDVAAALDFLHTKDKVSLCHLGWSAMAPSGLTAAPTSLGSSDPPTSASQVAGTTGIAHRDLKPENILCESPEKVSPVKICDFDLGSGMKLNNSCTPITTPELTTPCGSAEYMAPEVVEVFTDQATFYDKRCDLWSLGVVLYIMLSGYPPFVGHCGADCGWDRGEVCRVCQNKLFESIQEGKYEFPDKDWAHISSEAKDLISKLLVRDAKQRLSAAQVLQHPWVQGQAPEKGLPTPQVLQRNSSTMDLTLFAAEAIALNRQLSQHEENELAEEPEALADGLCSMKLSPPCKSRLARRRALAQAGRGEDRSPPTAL
# [20] = molecular target: AP2-associated protein kinase 1 (Mus musculus) (UniProt Q3UHJ0); test: In vivo inhibition of AAK1 in C57BL6 mouse assessed as suppression of mu2 phosphorylation in brain lysate at 60 mg/kg, sc measured after 1 hr by Western blot analysis relative to control; format: functional, organism-based
# [21] = molecular target: cAMP-dependent protein kinase catalytic subunit PRKX (Homo sapiens) (UniProt P51817); test: Inhibition of wild-type human partial length PRKX (M1 to F358 residues) expressed in bacterial expression system assessed as residual binding level at 1 uM by Kinomescan method relative to control
# Chain of cAMP-dependent protein kinase catalytic subunit PRKX (Homo sapiens) (P51817 whole entry, the tested form may be a part): as the sequence (P51817 whole entry, the tested form may be a part) above
# [22] = Drug concentration in Sprague-Dawley rat plasma at 60 mg/kg, sc measured after 190 mins; format: ADME, organism-based
structure (smiles),measurement,setting,value
CC(C)C[C@@H](N)C(=O)Nc1ccc(-c2cnco2)c(OC(F)F)c1,Activity,Rattus norvegicus [1],90%
same,Cp(f),[2],20 nM
same,concentration at 3.167 h,[3],3400 nM
same,ED50,[4],6 mg/kg
same,Cp(f),[5],220 nM
same,Papp at 4 h,[6],91.8 ×10⁻⁶ cm/s
same,concentration,[7],2600 nM
same,concentration,[8],77000 nM
same,Papp at 4 h,[9],96.7 ×10⁻⁶ cm/s
same,IC50,[10],326 nM
same,Activity,[11],21%
same,inhibition,[12],Active
same,IC50,[13],> 30000 nM
same,concentration,[14],900 nM
same,IC50,[15],922 nM
same,Activity,Rattus norvegicus [16],49%
same,"fraction unbound at 5 h, 10 µM",[17],0.041
same,Cp(f),[18],1040 nM
same,Activity,[19],8.4%
same,inhibition,[20],90%
same,Activity,[21],19%
same,concentration at 3.167 h,[22],84000 nM
